Data from paper PMC10063609, “Discovery of novel cardiac troponin activators using fluorescence polarization-based high throughput screening assays” (Scientific Reports, 2023).
Like-named read-outs stand apart in the source and are kept apart here.

Tests used:
[1] = tested on: CcTnC and cTnIAR interaction; set-up: method as in PMID 11320096, PMID 10913289; conditions: NMR spectroscopy; cited from earlier work
CcTnC = tested on: CcTnC; set-up: method as in PMID 11320096, PMID 10913289; conditions: cited from earlier work
[2] = target: Ca2+-saturated N-lobe of cTnC; set-up: method as in PMID 35755445; conditions: isolated Ca2+-saturated N-lobe of cTnC; cited from earlier work
Ca2+-saturated cChimera = tested on: Ca2+-saturated cChimera; set-up: method as in PMID 35755445; conditions: cited from earlier work
cTnC-cTnIAR interaction = cTnC-cTnIAR interaction (Homo sapiens, UniProt P63316); test: ITC titration of unlabelled cTnIAR peptide into cTnC without or with compound
[3] = target: interaction between cTnC and the anchoring region of cTnI (cTnIAR) (Homo sapiens, UniProt P63316); test: Fluorescence polarization HTS, binding and dose-response, cTnC/FAM-cTnIAR; conditions: for FP at higher drug concentrations: > 10 μmol/L, potentially assay interference; for FP (mP): cTnIAR primary screen, single concentration 10 μmol/L; for Total fluorescence intensity of the assay mixture: concentrations of up to 100 μmol/L, 2 nmol/L FAM-cTnIAR, 5 nmol/L cTnC; for Effect on FP from the cTnC FAM-cTnIAR mixture: dose-response, concentration dependent (Fig. 2c)
Procedure: (§1) Each compound was tested at a concentration of 50 μmol/L and 10 μmol/L for the cTnISP and cTnIAR screen, respectively. Hits were defined as compounds that changed the average FP value more than five-times the standard deviation (SD) (Fig. 1d, red lines). Moreover, compounds that either increased or decreased the total fluorescence intensity (FI) more than five-times the SD were removed from further analysis, indicating either compound aggregation or unspecific interactions with the fluorophore or protein complex.
(§2) Libraries were reformatted from 96-well plates to Greiner 384-well black plates using a GILSON PipetMax. The plates were sealed with adhesive foil and stored at − 20 °C until further use. […] A total of 40 nL of 10 mmol/L compound stocks were transferred to each well using a Mosquito liquid handler system (final DMSO concentration of 0.1% (v/v)). The plates were incubated in the dark for 30 min at 25 °C, and the fluorescence polarization from each well was measured using a ClarioStar Plate reader with appropriate excitation and emission filter settings. Dose–response curves were constructed by serial dilution of compounds in DMSO and adding a fixed volume to a mixture of peptide and cTnC.
(§3) Fluorescence polarization dose–response and binding experiments were performed in Greiner 384-well black plates in assay buffer (20 mmol/L Tris–HCl pH 7, 100 mmol/L NaCl, 1 mmol/L CaCl2, 1 mmol/L DTT) at 25 °C.

[4] = tested on: demembranated human donor ventricular tissue; test: Force-pCa titrations of demembranated human donor myocardium; assay type: cell-based; conditions: 100 μmol/L, 2 μm sarcomere length
Procedure: We tested for the functional effects of hit compounds by measuring the calcium sensitivity of force development of chemically demembranated human donor ventricular tissue at 2 μm sarcomere length in the absence and in the presence of 100 μmol/L compounds (Fig. 6). Force-pCa (pCa = −log10[Ca^2+]) relations for each preparation was measured in the absence and in the presence of each compound, so that each muscle preparation served as its own control.
Briefly, each demembranated cardiac muscle strip underwent a control force-pCa titration in the absence of compounds with the sarcomere length adjusted to about 2 µm by laser diffraction. Drugs were freshly diluted in DMSO and added to physiological buffer solutions. The final DMSO concentration was held constant at 0.2% (v/v). Subsequently, demembranated human heart muscle strips were equilibrated in relaxing solution (pCa 7) containing the appropriate concentrations of drugs for 25 min at 22 °C and the force-pCa titration repeated. Thus, each cardiac muscle strip served as its own negative control and force data were normalized to the maximal force of each preparation in the absence of compounds.

[5] = tested on: bovine cardiac myofibrils; test: NADH-coupled ATPase activity of isolated cardiac myofibrils; assay type: biochemical; conditions: sub-maximal activation (~70% of maximal), pCa 5.8
Procedure: Bovine cardiac myofibrils (CMF) were freshly prepared from bovine ventricle as previously described[49]. The NADH-coupled ATPase assay was adapted to test the effects of drugs on bovine cardiac myofibrils[50]. Briefly, buffers with varying free [Ca^2+] were prepared by adding the appropriate concentrations of EGTA and CaCl2 calculated using the MAXCHELATOR software. ATPase assays for hits identified in the cTnI switch peptide and anchoring region screens were performed at pCa 6 and pCa 5.8, respectively. […] 20 μL Enzyme mix was added to individual wells using a 12-well multichannel pipette. Appropriate concentrations of drugs were added to each well and the plate was shaken at 1000 rpm for 5 min on a plate shaker and further incubated at room temperature for 10 min. Substrate mix was dispensed into each well using the Gilson PipetMax. The plate was briefly spun down to ensure removal of air bubbles. The reaction was followed by recording the fluorescence intensity of each well with excitation at 380 nm and emission at 470 nm, for 10 min scanning the plate every 30 s. The temperature was kept constant at 25 °C. ATPase rates were extracted by linear regression to datapoints in GraphPad Prism.

Ca2+-saturated cTnC = Ca2+-saturated cTnC (Homo sapiens, UniProt P63316); test: ITC binding to full length Ca2+-saturated cTnC; conditions: for Kd: means ± SEM, n = 3
[6] = Solubility in aqueous buffer; assay type: physicochemical
Procedure: Figure S2. […] D MSO stocks of NS5806 were diluted with assay
buffer to the indicated concentrations (fixed DMSO concentration of 0.1% (v/v)), potential
aggregates removed by ultra -centrifugation and the absorbance at 296 nm plotted against the
in aqueous buffers up to a concentration of at least 500 µmol/L. (B) Total fluorescent intensity
dose-response curves for Claramine (red) and Furamidine (green) in the presence of 2 nmol/L
(1 picture or pasted object on this page, not shown here)

[7] = target: T1, interaction between cTnC and switch peptide of cTnI (cTnISP) (Homo sapiens, UniProt P63316); test: Fluorescence polarization HTS and dose-response, cTnC/FAM-cTnISP; assay type: binding; conditions: cTnISP primary screen, single concentration 50 μmol/L
Procedure: as §1, §2, §3

[8] = target: T1, interaction between cTnC and switch peptide of cTnI (cTnISP); set-up: method as in PMID 33315370; conditions: printed in Fig. 1c; assay previously published; cited from earlier work

Compound | Effect on the interaction / binding affinity of cTnC for cTnIAR (cTnC-cTnIAR interaction) | FP at higher drug concentrations [3] | Total fluorescence intensity of the assay mixture [3] | Effect on FP from the cTnC FAM-cTnIAR mixture [3] | Effect on calcium sensitivity / force-pCa relation [4] | Decrease of myofibrilar ATPase activity [5] | T∆S (Ca2+-saturated cTnC) [kcal/mol] | ∆H (Ca2+-saturated cTnC) [kcal/mol] | Kd (Ca2+-saturated cTnC) [µM] | other results
COc1ccc(C(=O)N2CCCc3cc(C4=NNC(=O)SC4C)ccc32)cc1OC (stereo not shown) [EMD 57033] |  |  |  |  |  |  |  |  |  | Effect on the CcTnC and cTnIAR interaction in vitro [1]: no significant effect; Affinity (CcTnC): micromolar affinity
O=C(O)c1ccc(-c2ccccc2Nc2cccc(Cl)c2)cc1 [RPI-194] |  |  |  |  |  |  |  |  |  | Kd [2]: > 300 µM; Affinity (Ca2+-saturated cChimera): low micromolar affinity
CC(C)CCCC(C)C1CCC2C3CC(NCCCNCCCCNCCCN)C4CC(O)CCC4(C)C3CCC12C (stereo not shown) [Claramine] | no or little effect | sudden increase in the FP | not affected | decreased the FP | no or little effect | 40–50% | 5.21 ± 0.311 | -1.1 ± 0.311 | 21.6 ± 1.8 | FP (mP) ([3]; LOPAC 1280 library): 53.9 mP; solubility ([6]; aqueous solutions, read-out: Solubility in aqueous solutions): > 25 mM
N=C(N)c1ccc(-c2ccc(-c3ccc(C(=N)N)cc3)o2)cc1 [Furamidine] | reduced by several orders of magnitude | sudden increase in the FP | not affected | decreased the FP | slightly increased the calcium sensitivity | 40–50% | 1.84 ± 0.72 | -4.64 ± 0.758 | 11.9 ± 5.5 | FP (mP) ([3]; TOCRIScreen library): 73.2 mP; Effect on maximal isometric force development [4]: no effect; Steepness of the force-pCa relation (nH) [4]: no effect; FP (mP) ([7]; LOPAC 1280 library): 91.8 mP; FP (mP) ([7]; TOCRIScreen library): 83.1 mP; solubility [6]: > 25 mM
FAM-A162H-cTnISP: N-terminally FAM labelled A162H-mutated switch region peptide of human cardiac troponin I, sequence TLRRVRISADAMMQALLGARHKESLDLR |  |  |  |  |  |  |  |  |  | Kd [8]: ~10 µM
